This is an account of results in patent US20240301409A1, “Chemically Modified Small Activating RNA” (RACTIGEN THERAPEUTICS, priority 2021, published 2024).

The series deals with Rag1-40 target sequence in the 3′ UTR of firefly luciferase, COS-1 cells.

As to “RAG1-40-31: saRNA duplex: sense fCfCAACUCAUUCUCCAAG*U*C (SEQ ID NO 16); antisense U*A*fCfUfUGGAGAAfUGAGfUfUGG*fC*A (SEQ ID NO 12) (sense CCAACUCAUUCUCCAAGUC; antisense UACUUGGAGAAUGAGUUGGCA; 2'-F and phosphorothioate modifications; modified_base (1)..(2) (1,2)=2′-fluoro; modified_base (17)..(19) (17,18,19)=phosphorothioate (PS) backbone modification; modified_base (2)..(21) (2,3,19,20,21)=phosphorothioate (PS) backbone modification; modified_base (3)..(20) (3,4,5,12,16,17,20)=2′-fluoro)”, the “off-target effect compared to unmodified Rag1-40, in words” value is on record as “mitigated or similar off-target effects”.
